IC50 data for 27 molecules are collected here from ChEMBL document CHEMBL3785005, “Novel triazole hybrids of myrrhanone C, a natural polypodane triterpene: Synthesis, cytotoxic activity and cell based studies” (Eur J Med Chem, 2016).

Holding throughout (assay type): functional, cell-based
Test [1] in a line: Cytotoxicity against human DU145 cells assessed as cell viability after 48 hrs by MTT assay. Conditions: DU-145, 48 h. A general note: Formazan colour is commonly taken as a measure of viable cells.
A further test relates to MCF7. Description: Cytotoxicity against human MCF7 cells assessed as cell viability after 48 hrs by MTT assay. Conditions: MCF7, 48 h.
The next test concerns HepG2. Description: Cytotoxicity against human HepG2 cells assessed as cell viability after 48 hrs by MTT assay. Conditions: HepG2, 48 h.
The next test deals with HeLa. Description: Cytotoxicity against human HeLa cells assessed as cell viability after 48 hrs by MTT assay.
Another test concerns A549. Description: Cytotoxicity against human A549 cells assessed as cell viability after 48 hrs by MTT assay. Conditions: A549, 48 h.

The IC50 is the concentration at which inhibition is half-maximal. As for `COc1cc(OC)c(-n2cc(COc3ccc(/C=C4\C[C@]5(C)[C@@H](CC/C=C(\C)CC/C=C(\C)CCC=C(C)C)[C@](C)(O)CC[C@H]5C(C)(C)C4=O)cc3)nn2)c(OC)c1`, the IC50 in test [1] is 12 µM; with MCF7 it was 13.5 µM; in the test with HepG2, 57.5 µM; in the test with HeLa, 17.5 µM; in the test on A549, 16.1 µM.

For `CC(C)=CCC/C(C)=C/CC/C(C)=C/CC[C@@H]1[C@@]2(C)C/C(=C\c3ccc(OCc4cn(-c5c(Cl)cc([N+](=O)[O-])cc5Cl)nn4)cc3)C(=O)C(C)(C)[C@@H]2CC[C@@]1(C)O`, the half-inhibitory concentration (IC50) turned out to be 20.9 µM in test [1]; 27.1 µM in the test on MCF7; 25.1 µM in the test on HepG2; 36.9 µM with HeLa; 34.7 µM with A549.

With `CC(C)=CCC/C(C)=C/CC/C(C)=C/CC[C@@H]1[C@@]2(C)CC/C(=N\OCc3cn(-c4ccc(F)cc4)nn3)C(C)(C)[C@@H]2CC[C@@]1(C)O`, the IC50 in test [1] was 21.6 µM; in the test with MCF7, 25.9 µM; with HepG2, 63.1 µM; with HeLa it was 21.4 µM; with A549 it was 18 µM.

As for `COc1cccc(-n2cc(COc3ccc(/C=C4\C[C@]5(C)[C@@H](CC/C=C(\C)CC/C=C(\C)CCC=C(C)C)[C@](C)(O)CC[C@H]5C(C)(C)C4=O)cc3)nn2)c1`, the 50% inhibitory concentration (IC50) worked out at 14.5 µM in test [1]; 16.6 µM in the test with MCF7; 50.1 µM in the test on HepG2; 16.2 µM in the test on HeLa; 45.7 µM in the test with A549.

As for `CC(C)=CCC/C(C)=C/CC/C(C)=C/CC[C@@H]1[C@@]2(C)C/C(=C\c3ccc(OCc4cn(-c5ccncc5)nn4)cc3)C(=O)C(C)(C)[C@@H]2CC[C@@]1(C)O`, the half-maximal inhibitory concentration (IC50) in test [1] was found to be 25.7 µM; in the test with MCF7, 37.5 µM; in the test on HepG2 it was 105 µM; in the test with HeLa, 77.6 µM; with A549, 34 µM.

As for `CC(C)=CCC/C(C)=C/CC/C(C)=C/CC[C@@H]1[C@@]2(C)C/C(=C\c3ccc(OCc4cn(-c5cccc([N+](=O)[O-])c5)nn4)cc3)C(=O)C(C)(C)[C@@H]2CC[C@@]1(C)O`, the IC50 came out at 46.4 µM in test [1]; 79.4 µM with MCF7; 117 µM in the test with HepG2; 32.9 µM with HeLa; 126 µM in the test with A549.

For `CC(C)=CCC/C(C)=C/CC/C(C)=C/CC[C@@H]1[C@@]2(C)C/C(=C\c3ccc(OCc4cn(-c5cccc(Br)c5)nn4)cc3)C(=O)C(C)(C)[C@@H]2CC[C@@]1(C)O`, the 50% inhibitory concentration (IC50) in test [1] was determined as 40.5 µM; in the test with MCF7, 61 µM; in the test with HepG2 it was 23.7 µM; in the test with HeLa it was 37.1 µM; with A549, 33.8 µM.

For `CC(C)=CCC/C(C)=C/CC/C(C)=C/CC[C@@H]1[C@@]2(C)C/C(=C\c3ccc(OCc4cn(-c5ccc(Cl)cc5)nn4)cc3)C(=O)C(C)(C)[C@@H]2CC[C@@]1(C)O`, the half-maximal inhibitory concentration (IC50) in test [1] worked out at 79.4 µM; in the test on MCF7 it was 72.4 µM; in the test on HepG2, 123 µM; in the test with HeLa, 50.7 µM; in the test on A549, 83.2 µM.

`CC(C)=CCC/C(C)=C/CC/C(C)=C/CC[C@@H]1[C@@]2(C)C/C(=C\c3ccc(OCc4cn(-c5cccc(C(F)(F)F)c5)nn4)cc3)C(=O)C(C)(C)[C@@H]2CC[C@@]1(C)O`: the IC50 was found to be 9.33 µM in test [1]; 13.8 µM in the test with MCF7; 27.6 µM with HepG2; 17.3 µM with HeLa; 23.2 µM in the test on A549.

On to `CC(C)=CCC/C(C)=C/CC/C(C)=C/CC[C@@H]1[C@@]2(C)CC/C(=N\OCc3cn(-c4c(Cl)cc([N+](=O)[O-])cc4Cl)nn3)C(C)(C)[C@@H]2CC[C@@]1(C)O`, for which the IC50 in test [1] amounted to 16.4 µM; with MCF7 it was 16.6 µM; in the test with HepG2 it was 34.9 µM; in the test with HeLa it was 23 µM; with A549 it was 11.2 µM.

Consider `CC(C)=CCC/C(C)=C/CC/C(C)=C/CC[C@@H]1[C@@]2(C)CC/C(=N\OCc3cn(-c4cccc(Br)c4)nn3)C(C)(C)[C@@H]2CC[C@@]1(C)O`, for which the half-maximal inhibitory concentration (IC50) turned out to be 14.6 µM in test [1]; 24.8 µM in the test on MCF7; 39.8 µM in the test with HepG2; 15.7 µM with HeLa; 11.7 µM in the test on A549.

With `CC(C)=CCC/C(C)=C/CC/C(C)=C/CC[C@@H]1[C@@]2(C)C/C(=C\c3ccc(OCc4cn(-c5ccc(F)c(Cl)c5)nn4)cc3)C(=O)C(C)(C)[C@@H]2CC[C@@]1(C)O`, the half-inhibitory concentration (IC50) in test [1] was determined as 28.4 µM; in the test with MCF7 it was 46.5 µM; in the test on HepG2, 40.2 µM; with HeLa, 43 µM; in the test on A549 it was 46.6 µM.

With `CC(C)=CCC/C(C)=C/CC/C(C)=C/CC[C@@H]1[C@@]2(C)CC/C(=N\OCc3cn(-c4cccc(C(F)(F)F)c4)nn3)C(C)(C)[C@@H]2CC[C@@]1(C)O`, the IC50 in test [1] amounted to 11.8 µM; with MCF7 it was 21.4 µM; in the test with HepG2, 22.7 µM; in the test with HeLa, 12.5 µM; with A549, 12.9 µM.

As to `COc1cccc2c1C(=O)c1c(O)c3c(c(O)c1C2=O)C[C@@](O)(C(=O)CO)C[C@@H]3O[C@H]1C[C@H](N)[C@H](O)[C@H](C)O1` [DOXORUBICIN], the IC50 in test [1] was 1.41 µM; in the test on HepG2 it was 3.01 µM; with HeLa, 2.57 µM; with A549 it was 2.81 µM.

Consider `CC(C)=CCC/C(C)=C/CC/C(C)=C/CC[C@@H]1[C@@]2(C)CC/C(=N\OCc3cn(-c4ccncc4)nn3)C(C)(C)[C@@H]2CC[C@@]1(C)O`, for which the IC50 was determined as 17.4 µM in test [1]; 12.6 µM in the test on MCF7; 22 µM in the test on HepG2; 18.8 µM in the test on HeLa; 13 µM in the test on A549.

Regarding `CC(C)=CCC/C(C)=C/CC/C(C)=C/CC[C@@H]1[C@@]2(C)C/C(=C\c3ccc(OCc4cn(-c5ccccc5C#N)nn4)cc3)C(=O)C(C)(C)[C@@H]2CC[C@@]1(C)O`, the IC50 is 25.1 µM in test [1]; 29.9 µM in the test with MCF7; 63.1 µM with HepG2; 100 µM with HeLa; 61.6 µM in the test on A549.

For the molecule `CC(C)=CCC/C(C)=C/CC/C(C)=C/CC[C@@H]1[C@@]2(C)CC/C(=N\OCc3cn(-c4ccc(Cl)cc4)nn3)C(C)(C)[C@@H]2CC[C@@]1(C)O`, the IC50 worked out at 16.2 µM in test [1]; 12.4 µM with MCF7; 19.9 µM in the test with HepG2; 14.8 µM in the test on HeLa; 12.3 µM in the test with A549.

As for `CC(C)=CCC/C(C)=C/CC/C(C)=C/CC[C@@H]1[C@@]2(C)C/C(=C\c3ccc(OCc4cn(-c5ccc(F)cc5)nn4)cc3)C(=O)C(C)(C)[C@@H]2CC[C@@]1(C)O`, the IC50 in test [1] was found to be 33.6 µM; in the test with MCF7, 42 µM; in the test on HepG2, 35.9 µM; in the test with HeLa it was 126 µM; in the test with A549 it was 55.2 µM.

Consider `CC(C)=CCC/C(C)=C/CC/C(C)=C/CC[C@@H]1[C@@]2(C)CCC(=O)C(C)(C)[C@@H]2CC[C@@]1(C)O`, for which the IC50 in test [1] worked out at 13.2 µM; in the test on MCF7 it was 16.2 µM; in the test on HepG2, 26.6 µM; with HeLa, 18.3 µM; in the test with A549, 12 µM.

As for `CC(C)=CCC/C(C)=C/CC/C(C)=C/CC[C@@H]1[C@@]2(C)CC/C(=N\OCc3cn(-c4ccc(F)c(Cl)c4)nn3)C(C)(C)[C@@H]2CC[C@@]1(C)O`, the half-maximal inhibitory concentration (IC50) in test [1] was 26.9 µM; in the test on MCF7 it was 31.4 µM; in the test with HepG2, 58.9 µM; in the test with HeLa, 20.1 µM; with A549, 21.4 µM.

Consider `CC(C)=CCC/C(C)=C/CC/C(C)=C/CC[C@@H]1[C@@]2(C)CC/C(=N\OCc3cn(-c4ccc(F)c(F)c4F)nn3)C(C)(C)[C@@H]2CC[C@@]1(C)O`, for which the IC50 in test [1] came to 30.4 µM; in the test with MCF7, 32.2 µM; in the test on HepG2, 37.7 µM; in the test on HeLa, 26.2 µM; in the test on A549 it was 26.9 µM.

Take `CC(C)=CCC/C(C)=C/CC/C(C)=C/CC[C@@H]1[C@@]2(C)CC/C(=N\OCc3cn(-c4cccc([N+](=O)[O-])c4)nn3)C(C)(C)[C@@H]2CC[C@@]1(C)O`: the half-maximal inhibitory concentration (IC50) was 17.4 µM in test [1]; 20.7 µM in the test with MCF7; 22 µM in the test with HepG2; 18.4 µM with HeLa; 14.8 µM in the test on A549.

As for `CC(C)=CCC/C(C)=C/CC/C(C)=C/CC[C@@H]1[C@@]2(C)C/C(=C\c3ccc(OCc4cn(-c5ccccc5)nn4)cc3)C(=O)C(C)(C)[C@@H]2CC[C@@]1(C)O`, the IC50 was 21 µM in test [1]; 23 µM with MCF7; 126 µM in the test with HepG2; 36.3 µM in the test on HeLa; 100 µM in the test with A549.

For `CC(C)=CCC/C(C)=C/CC/C(C)=C/CC[C@@H]1[C@@]2(C)CC/C(=N\OCc3cn(-c4cccc(O)c4)nn3)C(C)(C)[C@@H]2CC[C@@]1(C)O`, the IC50 in test [1] stood at 17.5 µM; in the test on MCF7, 9.9 µM; in the test on HepG2, 21.2 µM; in the test with HeLa it was 13.5 µM; in the test with A549, 12.8 µM.

As for `COc1cccc(-n2cc(CO/N=C3\CC[C@]4(C)[C@@H](CC/C=C(\C)CC/C=C(\C)CCC=C(C)C)[C@](C)(O)CC[C@H]4C3(C)C)nn2)c1`, the half-maximal inhibitory concentration (IC50) in test [1] turned out to be 30.5 µM; in the test on MCF7 it was 25.4 µM; with HepG2 it was 51.3 µM; in the test on HeLa, 22.9 µM; in the test on A549, 21.7 µM.

As to `CC(C)=CCC/C(C)=C/CC/C(C)=C/CC[C@@H]1[C@@]2(C)CC/C(=N\OCc3cn(-c4ccccc4C#N)nn3)C(C)(C)[C@@H]2CC[C@@]1(C)O`, the 50% inhibitory concentration (IC50) in test [1] was determined as 25.1 µM; with MCF7, 24.9 µM; in the test on HepG2, 21.9 µM; with HeLa, 21.2 µM; in the test on A549, 19.9 µM.

In the case of `CC(C)=CCC/C(C)=C/CC/C(C)=C/CC[C@@H]1[C@@]2(C)C/C(=C\c3ccc(OCc4cn(-c5cccc(O)c5)nn4)cc3)C(=O)C(C)(C)[C@@H]2CC[C@@]1(C)O`, the half-inhibitory concentration (IC50) in test [1] stood at 40.6 µM; with MCF7, 45.5 µM; in the test with HepG2, 26.9 µM; in the test with HeLa, 158 µM; in the test on A549, 110 µM.
